Here are results for 31 substances from patent US10918713B2, “Epitopes from allergen proteins and methods and uses for immune response modulation” (LA JOLLA INSTITUTE FOR ALLERGY AND IMMUNOLOGY, priority 2012, dated 2021).

In assay [1] the test system is PBMC from allergic donors. Kind of assay: IL-5 ELISPOT with extract-stimulated short-term lines. Format: cell-based, human. Particulars: positive donor/peptide response; one donor per table line. As for the experimental part:
(§1) Spots were counted by computer-assisted image analysis (Zeiss, KS-ELISPOT reader, Munich, Germany).
(§2) Each assay was performed in triplicate. The level of statistical significance was determined with a Student's t-test using the mean of triplicate values of the response against relevant pools or individual peptides versus the response against the DMSO control.

The test system of assay [2] is PBMC from allergic donors. Nature of the assay: Dual ELISPOT, total IL-5 and IFN-γ response (SFC). Particulars: sum of IFNg and IL-5; one donor per table line. Format: cell-based, human. How it is done:
as §1, §2

Values joined by “and” are separate entries in the source; they are usually repeats but may differ in a detail not shown here. Identical values can stand only once.

For the substance 3324.0348 (RAVESYLLAHSDAYN), the “Response (SFC/10^6) IL-5” value in assay [1] stood at 293 SFC/10^6. For the same substance, in assay [2], the “Response (SFC/10^6) Total” value worked out at 293 SFC/10^6.

Regarding 3324.0349 (TSVIPAARLFKAFFL), in assay [1], the “Response (SFC/10^6) IL-5” value turned out to be 427 SFC/10^6. In assay [2], the “Response (SFC/10^6) Total” value is reported as 427 SFC/10^6.

For the substance 3324.0350 (DHTNFKYSYSVIEGG), the “Response (SFC/10^6) IL-5” value in assay [1] is 413 SFC/10^6. Also, the “Response (SFC/10^6) Total” value in assay [2] is recorded as 413 SFC/10^6.

3324.0351 (YETETTSVIPAARLF): in assay [1], the “Response (SFC/10^6) IL-5” value came to 403 SFC/10^6. Moreover, the “Response (SFC/10^6) Total” value in assay [2] turned out to be 403 SFC/10^6.

In the case of 3324.0354 (GIKYMVIQGEAGAVI), in assay [1], the “Response (SFC/10^6) IL-5” value is reported as 350 SFC/10^6. In addition, in assay [2], the “Response (SFC/10^6) Total” value was found to be 350 SFC/10^6.

For 3324.0355 (DGSVWAQSSSFPQFK), the “Response (SFC/10^6) IL-5” value in assay [1] is 1953 SFC/10^6. The “Response (SFC/10^6) Total” value in assay [2] is 1953 SFC/10^6.

With 3324.0356 (GLHLGGIKYMVIQGE), in assay [1], the “Response (SFC/10^6) IL-5” value amounted to 440 SFC/10^6. Further, the “Response (SFC/10^6) Total” value in assay [2] is listed as 440 SFC/10^6.

For 3324.0364 (LSRALNLLGLETDLS), in assay [1], the “Response (SFC/10^6) IL-5” value is 167 SFC/10^6. Further, the “Response (SFC/10^6) Total” value in assay [2] is given as 167 SFC/10^6.

As for 3324.0522 (IIFSKNLNIKLNMPL), the “Response (SFC/10^6) IL-5” value in assay [1] is 863 SFC/10^6. The “Response (SFC/10^6) Total” value in assay [2] was 863 SFC/10^6.

In the case of 3324.0525 (DKSMKVTVAFNQFGP), the “Response (SFC/10^6) IL-5” value in assay [1] was determined as 323 SFC/10^6. For the same substance, the “Response (SFC/10^6) Total” value in assay [2] is recorded as 323 SFC/10^6.

On to 3324.0529 (MAAVAFLALQLIVMA), for which the “Response (SFC/10^6) IL-5” value in assay [1] is reported as 283 SFC/10^6. The “Response (SFC/10^6) Total” value in assay [2] came to 283 SFC/10^6.

3324.0605 (HFFNHHKVMLLGHDD): the “Response (SFC/10^6) IL-5” value in assay [1] is on record as 992 SFC/10^6. The “Response (SFC/10^6) Total” value in assay [2] amounted to 992 SFC/10^6.

Consider 3324.0612 (TISNNHFFNHHKVML), for which the “Response (SFC/10^6) IL-5” value in assay [1] is reported as 542 SFC/10^6. In addition, in assay [2], the “Response (SFC/10^6) Total” value is listed as 542 SFC/10^6.

Turning to 3324.0619 (GPCLFMRKVSHVILH), in assay [1], the “Response (SFC/10^6) IL-5” value is reported as 687 SFC/10^6. Besides, the “Response (SFC/10^6) Total” value in assay [2] was determined as 687 SFC/10^6.

Consider 3324.0621 (MRKVSHVILHGLHIH), for which the “Response (SFC/10^6) IL-5” value in assay [1] stood at 642 SFC/10^6. In assay [2], the “Response (SFC/10^6) Total” value was found to be 642 SFC/10^6.

With 3324.0622 (DKSMKVTVAFNQFGP), the “Response (SFC/10^6) IL-5” value in assay [1] is reported as 102 SFC/10^6. Moreover, in assay [2], the “Response (SFC/10^6) Total” value is 102 SFC/10^6.

3324.0827 (DNGYGYFAANIDLMM): in assay [1], the “Response (SFC/10^6) IL-5” value is listed as 53 SFC/10^6. The “Response (SFC/10^6) Total” value in assay [2] amounted to 53 SFC/10^6.

With 3324.0835 (QTHSAIAVIIGIKDL), the “Response (SFC/10^6) IL-5” value in assay [1] was 317 SFC/10^6. For the same substance, the “Response (SFC/10^6) Total” value in assay [2] was 317 SFC/10^6.

As to 3324.0838 (LESVKYVQSNGGAIN), the “Response (SFC/10^6) IL-5” value in assay [1] turned out to be 467 SFC/10^6. In addition, the “Response (SFC/10^6) Total” value in assay [2] was 467 SFC/10^6.

3324.0839 (ARKNFLESVKYVQSN): the “Response (SFC/10^6) IL-5” value in assay [1] amounted to 487 SFC/10^6. In assay [2], the “Response (SFC/10^6) Total” value came out at 487 SFC/10^6.

In the case of 3324.0940 (QQYDIKYTWNVPKIA), in assay [1], the “Response (SFC/10^6) IL-5” value is on record as 1333 SFC/10^6. In assay [2], the “Response (SFC/10^6) Total” value is 1333 SFC/10^6.

Turning to 3324.0960 (SELRRVDIAVVSRKE), the “Response (SFC/10^6) IL-5” value in assay [1] came out at 120 SFC/10^6. In assay [2], the “Response (SFC/10^6) Total” value is reported as 120 SFC/10^6.

Regarding 3324.0964 (GGEKISVAKIFAHEK), the “Response (SFC/10^6) IL-5” value in assay [1] came out at 137 SFC/10^6. Also, the “Response (SFC/10^6) Total” value in assay [2] is reported as 137 SFC/10^6.

Regarding 3324.0966 (EYWILTAAHCVAGQT), the “Response (SFC/10^6) IL-5” value in assay [1] is 203 SFC/10^6. In addition, in assay [2], the “Response (SFC/10^6) Total” value is given as 203 SFC/10^6.

As to 3324.0967 (IDNDIALIKLKSPMK), the “Response (SFC/10^6) IL-5” value in assay [1] was 187 SFC/10^6. For the same substance, the “Response (SFC/10^6) Total” value in assay [2] is recorded as 187 SFC/10^6.

Take 3324.0968 (IRYNSLKHSLGGEKI): in assay [1], the “Response (SFC/10^6) IL-5” value is reported as 137 SFC/10^6. Besides, in assay [2], the “Response (SFC/10^6) Total” value stood at 137 SFC/10^6.

Consider 3324.0969 (TLANPILPASPNATI), for which the “Response (SFC/10^6) IL-5” value in assay [1] came to 167 SFC/10^6. Moreover, in assay [2], the “Response (SFC/10^6) Total” value is on record as 167 SFC/10^6.

For the substance 3324.0970 (EFDAFVAYHIGARIV), the “Response (SFC/10^6) IL-5” value in assay [1] is 123 SFC/10^6 and 763 SFC/10^6. For the same substance, the “Response (SFC/10^6) Total” value in assay [2] was 123 SFC/10^6 and 763 SFC/10^6.

For 3324.0972 (LKAATAFMLAWNYGV), in assay [1], the “Response (SFC/10^6) IL-5” value was determined as 757 SFC/10^6. Also, the “Response (SFC/10^6) Total” value in assay [2] was 757 SFC/10^6.

Take 3324.0973 (FEGRLLKAATAFMLA): the “Response (SFC/10^6) IL-5” value in assay [1] is 113 SFC/10^6 and 953 SFC/10^6. In addition, the “Response (SFC/10^6) Total” value in assay [2] is 113 SFC/10^6 and 953 SFC/10^6.

Take 3324.0979 (PDDLRSIYSRLHNLN): the “Response (SFC/10^6) IL-5” value in assay [1] worked out at 177 SFC/10^6. Also, the “Response (SFC/10^6) Total” value in assay [2] amounted to 177 SFC/10^6.
